According to article PMC7094222 (Febs Letters, 2015):

Experiments:
Type in all cases: biochemical, Human Coxsackievirus B3
CVB3 3C^pro [1] = target: T1, CVB3 3C^pro (Coxsackievirus B3, UniProt P03313); assay: Reversibility test by large and rapid dilution of enzyme-inhibitor complex; conditions: 50-fold IC50 pre-incubated 30 min at 35 °C, then diluted 50-fold
CVB3 3C^pro [2] = target: T1, CVB3 3C^pro; assay: Enzyme kinetics study
CVB3 3C^pro [3] = target: T1, CVB3 3C^pro; assay: FRET-based enzyme assay of CVB3 3C^pro

T1 sequence (P03313 1541-1723): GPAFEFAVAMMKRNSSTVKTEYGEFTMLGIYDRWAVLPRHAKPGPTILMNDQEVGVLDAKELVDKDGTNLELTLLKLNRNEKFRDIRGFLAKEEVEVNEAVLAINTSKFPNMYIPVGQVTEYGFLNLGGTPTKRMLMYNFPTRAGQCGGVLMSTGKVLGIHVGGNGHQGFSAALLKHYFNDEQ

**Q.** For `NC(CO)C(=O)NNCc1ccc(O)c(O)c1O` (centres unmarked) [Benserazide, 2-amino-3-hydroxy-N'-(2,3,4-trihydroxybenzyl)propanehydrazide], which reversibility of inhibition (CVB3 3C^pro [1]) is on record?
**A.** The reversibility of inhibition was “reversible pattern”.

**Q.** And the Ki (CVB3 3C^pro [2])?
**A.** Its Ki is 4.7 µM.

**Q.** What about the “mechanism of the inhibition” value (CVB3 3C^pro [2]; inhibitor 0–10 μM, substrate 0–400 μM, V max reduced without a change in K m) of the same compound?
**A.** The value was “non-competitive inhibitor”.

**Q.** How did the inhibition at 50 µM (CVB3 3C^pro [3]; read-out: % Inhibition 50 μM) turn out when `NC(CO)C(=O)NNCc1ccc(O)c(O)c1` (centres unmarked) [9e, 2-amino-N'-(3,4-dihydroxybenzyl)-3-hydroxypropanehydrazide] was run?
**A.** Its inhibition at 50 µM is 56.2%.

**Q.** How did the IC50 (CVB3 3C^pro [3]) turn out when `NC(CO)C(=O)N/N=C\c1ccc(O)c(O)c1O` (centres unmarked) [8a, (Z)-2-amino-3-hydroxy-N'-(2,3,4-trihydroxybenzylidene)propanehydrazide] was run?
**A.** The IC50 was 2.72 µM.
